# What was measured:
# Test in all cases: colorimetric pNPG hydrolysis, […] nm
# [1] = biological target: T1, Rice α-glucosidase (Type 4); assay type: biochemical, Oryza sativa; conditions: pNPG substrate; 0.1 M potassium phosphate pH 7; 37 °C; 20 min pre-incubation, 30 min reaction
# T1 construct: gene Os06g0675700
# [2] = biological target: T2, Rat α-glucosidase; assay type: biochemical; conditions: pNPG substrate; 0.1 M potassium phosphate pH 7; 37 °C; 20 min pre-incubation, 60 min reaction
# T2 construct: gene Si; Sigma Aldrich preparation
# [3] = biological target: T3, Saccharomyces cerevisiae (yeast) α-glucosidase; assay type: biochemical; conditions: pNPG substrate; 0.1 M potassium phosphate pH 7; 37 °C; 20 min pre-incubation, 30 min reaction
# T3 construct: gene MAL12
structure (smiles),measurement,setting,value
"C[C@H]1O[C@H](O[C@H]2[C@H](O)[C@@H](O)[C@@H](O[C@H]3[C@H](O)[C@@H](O)C(O)O[C@@H]3CO)O[C@@H]2CO)[C@H](O)[C@@H](O)[C@@H]1N[C@H]1C=C(CO)[C@@H](O)[C@H](O)[C@H]1O (stereo partly drawn) [acarbose, reference compound]",Inhibition Expressed as EC50 (mg/mL) / Acarbose,[1],0.031 ± 0.005 mg/mL
same,Inhibition Expressed as EC50 (mg/mL) / Acarbose,[2],0.121 ± 0.001 mg/mL
same,Inhibition Expressed as EC50 (mg/mL) / Acarbose,[3],1.321 ± 0.048 mg/mL
"COc1ccc(C2COc3cc(O)ccc3C2=O)c(OC)c1 (stereo not drawn) [compound 1, sativanone]",Inhibition Expressed as EC50 (mg/mL) / Sativanone,[1],0.81 ± 0.023 mg/mL
same,Inhibition Expressed as EC50 (mg/mL) / Sativanone,[2],0.37 ± 0.022 mg/mL
same,Inhibition Expressed as EC50 (mg/mL) / Sativanone,[3],0.23 ± 0.012 mg/mL
"COc1ccc(-c2coc3cc(O)ccc3c2=O)cc1 [compound 2, formononetin]",Inhibition Expressed as EC50 (mg/mL) / Formononetin,[1],0.98 ± 0.029 mg/mL
same,Inhibition Expressed as EC50 (mg/mL) / Formononetin,[2],0.23 ± 0.037 mg/mL
same,Inhibition Expressed as EC50 (mg/mL) / Formononetin,[3],0.06 ± 0.002 mg/mL

# From paper PMC6099635, “New Records of Potent In-Vitro Antidiabetic Properties of Dalbergia tonkinensis Heartwood and the Bioactivity-Guided Isolation of Active Compounds” (Molecules : A Journal of Synthetic Chemistry and Natural …, 2018)
